Molecules are shown by their SMILES. Activity calls are given as the source filed them. The rule behind the calls is not given here.

For the data set, the system named is CCRIS mutagenicity, Ames/micronucleus/aberration tests. Briefly: CCRIS mutagenicity studies.
Setting [1] is: Test System: AMES SALMONELLA TYPHIMURIUM, Strain/Indicator: TA98, Metabolic Activation: NONE, Method: PREINCUBATION
Where [2] appears, read: Test System: AMES SALMONELLA TYPHIMURIUM, Strain/Indicator: TA100, Metabolic Activation: NONE, Method: PREINCUBATION
Setting [3] is: Test System: AMES SALMONELLA TYPHIMURIUM, Strain/Indicator: TA102, Metabolic Activation: NONE, Method: PREINCUBATION
Where [4] appears, read: Test System: AMES SALMONELLA TYPHIMURIUM, Strain/Indicator: TA98, Metabolic Activation: NONE, Method: STANDARD PLATE.

On to `CCN(CC)c1ccccc1`, for which the mutagenic call reads like this: (Test System: AMES SALMONELLA TYPHIMURIUM, Strain/Indicator: TA97, Metabolic Activation: HAMSTER, LIVER, S-9, AROCLOR 1254 (10 OR 30%), Method: PREINCUBATION) “inactive; negative”; (Test System: AMES SALMONELLA TYPHIMURIUM, Strain/Indicator: TA97, Metabolic Activation: NONE, Method: PREINCUBATION) “inactive; negative”; (Test System: AMES SALMONELLA TYPHIMURIUM, Strain/Indicator: TA97, Metabolic Activation: RAT, LIVER, S-9, AROCLOR 1254 (10 OR 30%), Method: PREINCUBATION) “inactive; negative”; (Test System: AMES SALMONELLA TYPHIMURIUM, Strain/Indicator: TA98, Metabolic Activation: HAMSTER, LIVER, S-9, AROCLOR 1254 (10 OR 30%), Method: PREINCUBATION) “inactive; negative”; (Test System: AMES SALMONELLA TYPHIMURIUM, Strain/Indicator: TA98, Metabolic Activation: HAMSTER, LIVER, S-9, PHENOBARBITAL AND BETA-NAPHTHOFLAVONE, Method: PREINCUBATION) “inactive; negative”; under setting [1], “inactive; negative”. The mutagenic call is, setting by setting: (Test System: AMES SALMONELLA TYPHIMURIUM, Strain/Indicator: TA98, Metabolic Activation: RAT, LIVER, S-9, AROCLOR 1254 (10 OR 30%), Method: PREINCUBATION) “inactive; negative”; (Test System: AMES SALMONELLA TYPHIMURIUM, Strain/Indicator: TA100, Metabolic Activation: HAMSTER, LIVER, S-9, AROCLOR 1254 (10 OR 30%), Method: PREINCUBATION) “inactive; negative”; (Test System: AMES SALMONELLA TYPHIMURIUM, Strain/Indicator: TA100, Metabolic Activation: HAMSTER, LIVER, S-9, PHENOBARBITAL AND BETA-NAPHTHOFLAVONE, Method: PREINCUBATION) “inactive; negative”; under setting [2], “inactive; negative”; (Test System: AMES SALMONELLA TYPHIMURIUM, Strain/Indicator: TA100, Metabolic Activation: RAT, LIVER, S-9, AROCLOR 1254 (10 OR 30%), Method: PREINCUBATION) “inactive; negative”; (Test System: AMES SALMONELLA TYPHIMURIUM, Strain/Indicator: TA102, Metabolic Activation: HAMSTER, LIVER, S-9, PHENOBARBITAL AND BETA-NAPHTHOFLAVONE, Method: PREINCUBATION) “inactive; negative”. Besides, the mutagenic call is, setting by setting: under setting [3], “inactive; negative”; (Test System: AMES SALMONELLA TYPHIMURIUM, Strain/Indicator: TA104, Metabolic Activation: HAMSTER, LIVER, S-9, PHENOBARBITAL AND BETA-NAPHTHOFLAVONE, Method: PREINCUBATION) “inactive; negative”; (Test System: AMES SALMONELLA TYPHIMURIUM, Strain/Indicator: TA104, Metabolic Activation: NONE, Method: PREINCUBATION) “inactive; negative”; (Test System: AMES SALMONELLA TYPHIMURIUM, Strain/Indicator: TA1535, Metabolic Activation: HAMSTER, LIVER, S-9, AROCLOR 1254 (10 OR 30%), Method: PREINCUBATION) “inactive; negative”; (Test System: AMES SALMONELLA TYPHIMURIUM, Strain/Indicator: TA1535, Metabolic Activation: HAMSTER, LIVER, S-9, PHENOBARBITAL AND BETA-NAPHTHOFLAVONE, Method: PREINCUBATION) “inactive; negative”; (Test System: AMES SALMONELLA TYPHIMURIUM, Strain/Indicator: TA1535, Metabolic Activation: NONE, Method: PREINCUBATION) “inactive; negative”. Besides, the mutagenic call is, setting by setting: (Test System: AMES SALMONELLA TYPHIMURIUM, Strain/Indicator: TA1535, Metabolic Activation: RAT, LIVER, S-9, AROCLOR 1254 (10 OR 30%), Method: PREINCUBATION) “inactive; negative”; (Test System: AMES SALMONELLA TYPHIMURIUM, Strain/Indicator: TA1537, Metabolic Activation: HAMSTER, LIVER, S-9, PHENOBARBITAL AND BETA-NAPHTHOFLAVONE, Method: PREINCUBATION) “inactive; negative”; (Test System: AMES SALMONELLA TYPHIMURIUM, Strain/Indicator: TA1537, Metabolic Activation: NONE, Method: PREINCUBATION) “inactive; negative”; (Test System: E. COLI, Strain/Indicator: WP2UVRA/PKM101, Metabolic Activation: HAMSTER, LIVER, S-9, PHENOBARBITAL AND BETA-NAPHTHOFLAVONE, Method: PREINCUBATION) “inactive; negative”; (Test System: E. COLI, Strain/Indicator: WP2UVRA/PKM101, Metabolic Activation: NONE, Method: PREINCUBATION) “inactive; negative”; (Test System: E. COLI, Strain/Indicator: WP2UVRA, Metabolic Activation: HAMSTER, LIVER, S-9, PHENOBARBITAL AND BETA-NAPHTHOFLAVONE, Method: PREINCUBATION) “inactive; negative”. Further, the mutagenic call by setting is: (Test System: E. COLI, Strain/Indicator: WP2UVRA, Metabolic Activation: NONE, Method: PREINCUBATION) “inactive; negative”; (Test System: UDS RODENT HEPATOCYTES, Strain/Indicator: THY INCORP (NON-S-PHASE), Metabolic Activation: NONE, Method: AUTORADIOGRAPHY) “inactive; negative”.

As to `O=[N+]([O-])c1cnc2c(c1)nc1ccccn12`, the mutagenic call by setting is: under setting [4], “active; positive”; (Test System: AMES SALMONELLA TYPHIMURIUM, Strain/Indicator: TA98, Metabolic Activation: RAT, LIVER, CYTOSOL, AROCLOR 1254, Method: STANDARD PLATE) “active; positive”; (Test System: AMES SALMONELLA TYPHIMURIUM, Strain/Indicator: TA98, Metabolic Activation: RAT, LIVER, MICROSOMES, AROCLOR 1254, Method: STANDARD PLATE) “active; positive”; (Test System: AMES SALMONELLA TYPHIMURIUM, Strain/Indicator: TA98, Metabolic Activation: RAT, LIVER, S-9, AROCLOR 1254, Method: STANDARD PLATE) “active; positive”.

As for `[Ag][I]`, the mutagenic call reads like this: (Test System: AMES SALMONELLA TYPHIMURIUM, Strain/Indicator: TA97, Metabolic Activation: NONE, Method: STANDARD PLATE) “inactive; negative”; (Test System: AMES SALMONELLA TYPHIMURIUM, Strain/Indicator: TA97, Metabolic Activation: RAT LIVER S-9, AROCLOR 1254, Method: STANDARD PLATE) “active; positive”; under setting [4], “inactive; negative”; (Test System: AMES SALMONELLA TYPHIMURIUM, Strain/Indicator: TA98, Metabolic Activation: RAT LIVER S-9, AROCLOR 1254, Method: STANDARD PLATE) “inactive; negative”; (Test System: AMES SALMONELLA TYPHIMURIUM, Strain/Indicator: TA102, Metabolic Activation: NONE, Method: STANDARD PLATE) “active; positive”; (Test System: AMES SALMONELLA TYPHIMURIUM, Strain/Indicator: TA102, Metabolic Activation: RAT LIVER S-9, AROCLOR 1254, Method: STANDARD PLATE) “inactive; negative”. In addition, the mutagenic call is, setting by setting: (Test System: AMES SALMONELLA TYPHIMURIUM, Strain/Indicator: TA1535, Metabolic Activation: NONE, Method: STANDARD PLATE) “inactive; negative”; (Test System: AMES SALMONELLA TYPHIMURIUM, Strain/Indicator: TA1535, Metabolic Activation: RAT LIVER S-9, AROCLOR 1254, Method: STANDARD PLATE) “inactive; negative”.

Turning to `Cc1cccc2ccc([N+](=O)[O-])cc12`, the mutagenic call under setting [1] is “active; positive”.

With `CCC(C)C=O` (stereo not given), the mutagenic call runs as follows: under setting [1], “inactive; negative”; (Test System: AMES SALMONELLA TYPHIMURIUM, Strain/Indicator: TA98, Metabolic Activation: RAT, LIVER, S-9, AROCLOR 1254, Method: PREINCUBATION) “inactive; negative”; under setting [2], “inactive; negative”; (Test System: AMES SALMONELLA TYPHIMURIUM, Strain/Indicator: TA100, Metabolic Activation: RAT, LIVER, S-9, AROCLOR 1254, Method: PREINCUBATION) “inactive; negative”; under setting [3], “inactive; negative”; (Test System: AMES SALMONELLA TYPHIMURIUM, Strain/Indicator: TA102, Metabolic Activation: RAT, LIVER, S-9, AROCLOR 1254, Method: PREINCUBATION) “inactive; negative”.
